The values below come from ChEMBL document CHEMBL4382294, “Synthesis of a 6-Aza-Isoindolinone-Based Inhibitor of Phosphoinositide 3-Kinase γ via Ruthenium-Catalyzed [2 + 2 + 2] Cyclotrimerization” (ACS Med Chem Lett, 2019).

Experiment [1] addresses T1, Phosphatidylinositol 4,5-bisphosphate 3-kinase catalytic subunit gamma isoform (Homo sapiens, UniProt P48736). As to the kind of experiment: Inhibition of PI3Kgamma in human THP1 cells assessed as reduction in MCP1-induced Akt phosphorylation at Thr308/Ser473 residue preincubated for 1 hr followed by MCP1 stimulation for 3 mins by FACS analysis. Type of experiment: cell-based.

For experiment [2], the species on record is Homo sapiens. Nature of the experiment: Selectivity ratio of IC50 for PI3Kalpha (unknown origin) to IC50 for PI3Kgamma (unknown origin).
For experiment [3], the species on record is Homo sapiens. As to the kind of experiment: Selectivity ratio of IC50 for PI3Kbeta (unknown origin) to IC50 for PI3Kgamma (unknown origin).
The species named for experiment [4] is Homo sapiens. Nature of the experiment: Selectivity ratio of IC50 for PI3Kdelta (unknown origin) to IC50 for PI3Kgamma (unknown origin).
Experiment [5] addresses T1, Phosphatidylinositol 4,5-bisphosphate 3-kinase catalytic subunit gamma isoform. Nature of the experiment: Inhibition of PI3Kgamma (unknown origin) using PIP2 as substrate measured after 15 mins in presence of [33P]ATP by scintillation counting method.

T1 sequence (P48736 whole entry, canonical isoform): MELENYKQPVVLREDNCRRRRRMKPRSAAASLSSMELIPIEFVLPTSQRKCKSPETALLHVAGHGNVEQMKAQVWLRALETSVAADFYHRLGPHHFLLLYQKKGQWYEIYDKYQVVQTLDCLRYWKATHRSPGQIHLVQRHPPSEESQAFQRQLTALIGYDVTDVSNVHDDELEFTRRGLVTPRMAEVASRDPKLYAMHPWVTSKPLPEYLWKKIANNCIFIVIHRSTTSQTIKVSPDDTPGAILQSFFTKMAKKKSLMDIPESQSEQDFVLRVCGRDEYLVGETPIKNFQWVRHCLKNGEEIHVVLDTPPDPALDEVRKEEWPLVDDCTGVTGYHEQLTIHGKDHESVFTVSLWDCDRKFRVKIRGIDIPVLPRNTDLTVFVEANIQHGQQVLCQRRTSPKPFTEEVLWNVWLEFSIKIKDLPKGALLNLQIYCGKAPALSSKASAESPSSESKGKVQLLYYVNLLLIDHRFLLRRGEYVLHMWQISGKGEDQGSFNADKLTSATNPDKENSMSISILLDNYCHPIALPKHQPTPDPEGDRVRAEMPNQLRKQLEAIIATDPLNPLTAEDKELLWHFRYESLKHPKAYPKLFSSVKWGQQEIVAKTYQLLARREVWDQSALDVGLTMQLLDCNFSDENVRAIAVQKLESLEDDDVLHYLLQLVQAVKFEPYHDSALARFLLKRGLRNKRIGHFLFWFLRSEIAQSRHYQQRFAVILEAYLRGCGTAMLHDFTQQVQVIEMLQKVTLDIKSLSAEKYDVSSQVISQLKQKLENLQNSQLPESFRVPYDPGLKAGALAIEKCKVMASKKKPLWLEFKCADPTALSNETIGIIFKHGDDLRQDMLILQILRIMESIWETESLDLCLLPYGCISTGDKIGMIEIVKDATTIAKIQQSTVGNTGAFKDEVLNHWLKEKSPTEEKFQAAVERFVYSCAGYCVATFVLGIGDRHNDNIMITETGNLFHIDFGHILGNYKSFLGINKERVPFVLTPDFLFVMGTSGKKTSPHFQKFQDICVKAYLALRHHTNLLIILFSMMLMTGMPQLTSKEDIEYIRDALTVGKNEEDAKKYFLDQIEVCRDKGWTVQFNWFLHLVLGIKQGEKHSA

A word on the IC50: it is the midpoint of a concentration-inhibition curve. `COc1cc(-c2ccc3c(n2)CN(c2cnn(CC(F)(F)F)c2)C3=O)cnc1OC`: the IC50 in experiment [1] was 47 nM. Moreover, the Ratio IC50 in the experiment filed under Homo sapiens [2] came out at 65; in the experiment filed under Homo sapiens [3] it was 31; in the experiment listed under Homo sapiens [4], 13.

What is called Ki is the dissociation constant of the complex between target and ligand, obtained from inhibition or displacement. For the compound `COc1cc(-c2cc3c(c(C)n2)C(=O)N(c2cnn(CC(F)(F)F)c2)C3)cnc1OC`, the inhibitory constant (Ki) in experiment [5] was 14 nM. For the same compound, the half-inhibitory concentration (IC50) in experiment [1] came out at 270 nM. Besides, the Ratio IC50 worked out at 15 in the experiment listed under Homo sapiens [2], 8 in the experiment listed under Homo sapiens [3] and 6 in the experiment listed under Homo sapiens [4].
